Assay results published in patent publication US5204311A, “Ethanediimidic acid bis[(arylalkylidene)hydrazide] color-formers” (Minnesota Mining and Manufacturing Company, priority 1991, dated 1993).
Entries after “also recorded” stand apart in the source; their conditions may differ.

Experiments:
[1] = Color (Hunter coordinates) of Ni complex, swabbed on Ni-coated receptor (CF) sheet; assay type: physicochemical; set-up: key to Hunter coordinate a / Hunter Coordinates a: Hunter a: +a red, -a green; key to Hunter coordinate b / Hunter Coordinates b: Hunter b: +b yellow, -b blue; conditions: for Chroma: C=(a^2 +b^2)^1/2; for Chroma / Image Color / Hunter Coordinates L / Hunter Coordinates a / Hunter Coordinates b: Ni(II) complex; for Chroma / Image Color: swab concn. 1% (Table 2); for Hunter Coordinates L / Hunter Coordinates a / Hunter Coordinates b: swab concn. 1%, 45°/0° reflectance, illuminant C (Table 2); for color of nickel / transition metal coordination compound (in words) / Chroma (in words): description
Procedure: In general, the colors of the complexes, as listed in Table 2 and Experiments 4, 6, and 7 below, were determined by preparing a 1% solution of the color-former or mixture of color-formers in an appropriate solvent. Unless otherwise indicated, the solvent was composed of a mixture of tributyl phosphate (26.5%), diethyl phthalate (17.6%), and cyclohexane (55.9%). The images were formed by applying two stripes of the solution to a substrate coated with a Ni^2+ coated receptor sheet using a cotton tipped applicator swab. Rapid and complete development of the image was achieved by passing the sheet through a hot shoe adjusted to 102° C., making a revolution every 10 seconds. The visually observed colors were measured and recorded.
One method of color measurement is to determine the color's position in color space. One color space system is the Hunter System; see F. W. Billmeyer, Jr., and M. Saltzman, Principles of Color Technology; John Wiley & Sons; New York, N.Y.; Ch. 2 & 3, 1981. In this system three mutually perpendicular axes (L, a, and b) are needed to define a color. "L" (+z axis) represents the lightness or darkness of the image; "a" (x axis) represents the amount of red or green (+a is red, -a is green); and "b" (y axis) represents the amount of yellow or blue (+b is yellow, -b is blue). By measuring a material's L, a, and b values, the color of one sample can be compared with that of other samples. Another value used in the Hunter System is Chroma (C). Chroma is defined by the equation [C=(a^2 +b^2)^1/2 ] and represents the distance of the image coordinates from the origin. The greater the Chroma, the more intense the image. Chroma is used to compare images cf the same hue. Because the color of a sample is also dependent upon the color temperature of the illuminating source, the angle at which the sample is illuminated, the angle at which the illumination is reflected, and the angle of the retina illuminated, these all need to be specified. Many instruments have been developed to record these values. One such instrument is the HunterLab LabScan II. This instrument is capable of automatically determining the L, a, and b values for a given sample, and was used for the following examples.
The L, a, and b color coordinates of the more uniform stripe were measured for 45°/0° reflectance on a HunterLab LabScan II, secondary observer, using illuminant C. The observed (image) color and the Hunter coordinates for Ni^2+ complexes of the yellow color-formers of this invention are given in Table 2.
A 1% solution of the condensation product in the encapsulation fill mix was swabbed onto a carbonless paper CF sheet (sold by the 3M Co. St. Paul, Minn.) with a cotton swab. The reflectance spectra had Hunter coordinates of: […]

[2] = Solubility in capsule fill solvents; assay type: physicochemical
Procedure: The encapsulation process requires the color-forming ligand be dissolved in a solvent or mixed solvents, because of the nature of the procedure. Formation of a microcapsule shell as by condensation of urea or melamine with an aldehyde such as formaldehyde or mixtures of aldehydes to form the capsule shell is carried out in an acidic aqueous medium and the color-former solution must be insoluble and unreactive to these reagents for the encapsulation to proceed. Solvents commonly used include tributyl phosphate, diethyl phthalate, and cyclohexane. […] As mentioned above, solubility of yellow color-formers exemplified by structure I in nonaqueous solvents such as those used in the encapsulation process may be increased by substituting alkyl, aryl, aralkyl, alkenyl, or such groups for the hydrogens on the various positions available in the structure I above.
This color observed on the CF sheet was yellow. […] Solubility in a solvent blend of tributyl phosphate, diethyl phthalate and cyclohexane (capsule solvents for preparing carbonless copy-paper) was >9% by weight. Thus the ligand is eminently suitable for encapsulation. The ligand is not volatile at 71 ° C. overnight.
Solubility in a solvent blend of tributyl phosphate, diethyl phthalate and cyclohexane (capsule solvents for preparing carbonless copy-paper) was 3% by weight. Thus the ligand is eminently suitable for encapsulation. The ligand is not volatile at 71 ° C. overnight.
*THE SOLUBILITY WAS DEEMED PREFERABLE IF IT WAS GREATER THAN 2% IN THE
FILL MIX AT ROOM TEMPERATURE FOR 3 DAYS. THE FILL MIX COMPRISED
TRIBUTYLPHOSPHATE (26.5%); DIETHYLPHTHALATE (17.6%); AND CYCLOHEXANE

Chroma [1] | Image Color [1] | Hunter Coordinates L [1] | Hunter Coordinates a [1] | Hunter Coordinates b [1] | Dye Solubility ([2]; 4320 min) [%] | color of nickel / transition metal coordination compound (in words) [1] | measured reflectance density (in words) ([1]; nickel complex) | SMILES | Dye Solubility ([2]; fill mix tributylphosphate (26.5%), diethylphthalate (17.6%), cyclohexane (55.9%), room temperature, 3 days (Table 2)) [%] | Chroma (in words) ([1]; nickel complex)
28.5 | Yellow | 86.6 | -6.5 | 27.8 | < 2.0 | – | – | NC(=NN=Cc1c(O)ccc2ccccc12)C(N)=NN=Cc1c(O)ccc2ccccc12 [Compound 17, Ethanediimidic acid bis[(2-hydroxy-1-naphthylmethylene)hydrazide]] | – | –
41.1 | Yellow | 81.9 | -7.5 | 40.5 | < 2.0 | – | – | NC(=NN=Cc1cc(Br)ccc1O)C(N)=NN=Cc1cc(Br)ccc1O [Compound 3, Ethanediimidic acid bis[(2-hydroxy-5-bromophenylmethylene)hydrazide]] | – | –
20.1 | Yellow | 48.3 | -5.3 | 19.4 | < 2.0 | yellow | – | CC(=NN=C(N)C(N)=NN=C(C)c1ccccc1O)c1ccccc1O [Compound 6, Ethanediimidic acid bis[(2-hydroxyphenyl-methyl-methylene)hydrazide]] | – | –
18.0 | – | 88.0 | -6.0 | 17.0 | < 2.0 | – | – | NC(=NN=C(c1ccccc1)c1ccc(O)cc1O)C(N)=NN=C(c1ccccc1)c1ccc(O)cc1O [Compound 8, Ethanediimidic acid bis[(2,4-dihydroxyphenyl-phenyl-methylene)hydrazide]] | – | –
– | Brown | 72.6 | 11.2 | 13.9 | < 2.0 | – | – | NC(=NN=Cc1cccs1)C(N)=NN=Cc1cccs1 [Compound 13, Ethanediimidic acid bis[(2-thienylmethylene)hydrazide]] | – | intermediate between that of aliphatic and the preferred o-substituted ligands
35.0 | Yellow | 86.5 | -11.0 | 33.2 | < 2.0 | – | – | NC(=NN=Cc1ccccn1)C(N)=NN=Cc1ccccn1 [Compound 14, Ethanediimidic acid bis[(2-pyridylmethylene)hydrazide]] | – | intermediate between that of aliphatic and the preferred o-substituted ligands
39.3 | Yellow | 88.4 | -15.2 | 36.2 | < 2.0 | – | – | CCOc1cccc(C=NN=C(N)C(N)=NN=Cc2cccc(OCC)c2O)c1O [Compound 11, Ethanediimidic acid bis[(2-hydroxy-3-ethoxyphenylmethylene)hydrazide]] | – | –
15.4 | – | 89.4 | -5.8 | 14.3 | > 2.0 | – | – | CCOC(=O)CC(C)=NN=C(N)C(N)=NN=C(C)CC(=O)OCC [Compound 7] | – | –
19.2 | – | 90.0 | -8.0 | 17.6 | > 2.0 | much weaker | – | CC(C)(C)c1cc(C=NN=C(N)C(N)=NN=Cc2cc(C(C)(C)C)c(O)c(C(C)(C)C)c2)cc(C(C)(C)C)c1O [Compound 2, Ethanediimidic acid bis[(4-hydroxy-3,5-di-t-butylphenylmethylene)hydrazide]] | – | lower Chroma
36.2 | Yellow | 86.4 | -11.1 | 34.5 | < 2.0 | – | – | COc1cccc(C=NN=C(N)C(N)=NN=Cc2cccc(OC)c2O)c1O [Compound 10, Ethanediimidic acid bis[(2-hydroxy-3-methoxyphenylmethylene)hydrazide]] | – | –
41.4 | Yellow | 80.9 | -5.2 | 41.0 | < 2.0 | – | – | CCN(CC)c1ccc(C=NN=C(N)C(N)=NN=Cc2ccc(N(CC)CC)cc2O)c(O)c1 [Compound 5, Ethanediimidic acid bis[(2-hydroxy-4-diethylaminophenylmethylene)hydrazide]] | – | –
25.8 | Yellow | 89.4 | -10.6 | 23.5 | < 2.0 | – | – | NC(=NN=Cc1ccco1)C(N)=NN=Cc1ccco1 [Compound 12, Ethanediimidic acid bis[(furylmethylene)hydrazide]] | – | intermediate between that of aliphatic and the preferred o-substituted ligands

SMILES | Chroma [1] | Image Color [1] | Hunter Coordinates L [1] | Hunter Coordinates a [1] | Hunter Coordinates b [1] | Dye Solubility ([2]; 4320 min) [%] | color of nickel / transition metal coordination compound (in words) [1] | measured reflectance density (in words) ([1]; nickel complex) | Dye Solubility ([2]; fill mix tributylphosphate (26.5%), diethylphthalate (17.6%), cyclohexane (55.9%), room temperature, 3 days (Table 2)) [%] | Chroma (in words) ([1]; nickel complex)
NC(=NN=Cc1cc([N+](=O)[O-])ccc1O)C(N)=NN=Cc1cc([N+](=O)[O-])ccc1O [Compound 4, Ethanediimidic acid bis[(2-hydroxy-5-nitrophenylmethylene)hydrazide]] | 40.1 | Yellow | 83.9 | -9.7 | 38.9 | – | – | – | < 2.0 | –
CCCCCCC=NN=C(N)C(N)=NN=CCCCCCC [Compound 15] | 11.6 | – | 89.9 | -4.2 | 10.8 | > 2.0 | very weakly yellow; also recorded: weak yellow | low | – | low and low Chroma value
